Assay results reported in patent US6413539B1, “Hydrogel-forming, self-solvating absorbable polyester copolymers, and methods for use thereof” (Poly-Med, Inc., priority 1996, dated 2002).

Test: Binding of acidic organic drugs to anion-exchanger
Type: physicochemical
Settings: sodium salt of drug; anion-exchanger of Example XIII
Experimental: The preparation of the anion-exchanger is achieved in two steps. […] In the second step, the practically non-ionic microparticles are incubated in hot dilute solution (^˜80° C.) of hexanediamine of known concentration in dioxane under argon for 2-4 hours. The concentration of the diamine in dioxane is determined by acidimetry. When the reaction practically ceases to take place, the aminated microparticles are separated by filtration, rinsed with dioxane, and dried under reduced pressure. The binding capacity of the anion-exchanger (aminated particles) is determined by (1) elemental analysis for nitrogen and (2) extent of binding to naproxin by measuring the extent of drug removed from a dilute solution using HPLC. The latter is confirmed by release of the immobilized naproxin with a dilute sodium hydroxide solution of known concentration.
Typical examples of acidic organic drugs that are available as sodium salt are ganciclovir, naproxin, and ibuprofen. In typical experiments, the aforementioned drugs are bound to the anion-exchanger of Example XIII following a similar scheme to that used in the same example describing the binding of naproxin.

SMILES | % Drug bound to anion-exchanger [%]
Nc1nc(O)c2ncn(COC(CO)CO)c2n1 [Ganciclovir, ganciclovir] | 6
CC(C)Cc1ccc(C(C)C(=O)O)cc1 (stereo not drawn) [Ibuprofen, ibuprofen] | 8
COc1ccc2cc([C@H](C)C(=O)O)ccc2c1 [Naproxin, naproxin] | 11
